Assay results: US20240336622A1 (The Board of Regents of The University of Texas System, priority 2021, published 2024)

Test system: UWB1 cells
Assay: cells
Conditions: read-out: IC50 (μM) UWB1 cells

Compound	IC50 [µM]
COC(=O)C[C@H]1[C@]2(C)C3=C(C)[C@@H](c4ccc(CO[Si](C)(C)C(C)(C)C)cc4)C[C@H]3O[C@@H]2[C@@H]2OC(=O)[C@]3(C)C=CC(=O)[C@@]1(C)[C@@H]23 [S-148]	0.161
COC(=O)C[C@H]1[C@@H]2CC3=C(C)[C@H](c4cccc(O[Si](C)(C)C(C)(C)C)c4)C[C@@H]3O[C@@H]2[C@@H]2OC(=O)[C@]3(C)C=CC(=O)[C@@]1(C)[C@@H]23 [S-113]	0.216
COC(=O)C[C@H]1[C@]2(C)C3=C(C)[C@H](c4ccc(CO[Si](C)(C)C(C)(C)C)cc4)C[C@H]3O[C@@H]2[C@@H]2OC(=O)[C@]3(C)C=CC(=O)[C@@]1(C)[C@@H]23 [S-146]	0.18
COC(=O)C[C@H]1[C@@H]2CC3=C(C)[C@@H](c4ccc(CO[Si](C)(C)C(C)(C)C)cc4)C[C@@H]3O[C@@H]2[C@@H]2OC(=O)[C@]3(C)C=CC(=O)[C@@]1(C)[C@@H]23 [S-149]	0.163
COC(=O)C[C@H]1[C@@H]2CC3=C(C)[C@H](c4ccc(O[Si](C)(C)C(C)(C)C)cc4)C[C@H]3O[C@@H]2[C@@H]2OC(=O)[C@]3(C)C=CC(=O)[C@@]1(C)[C@@H]23 [S-118]	0.0815
COC(=O)C[C@H]1[C@@H]2CC3=C(C)CC[C@@H]3O[C@@H]2[C@@H]2OC(=O)[C@]3(C)C=CC(=O)[C@@]1(C)[C@@H]23 [S-98]	0.83
C=C1[C@H](O[C@H]2C[C@@H](c3ccoc3)C(C)=C2I)[C@@H]2OC(=O)[C@]3(C)C=CC(=O)[C@@](C)([C@@H]23)[C@H]1CC(=O)OC [S-27]	0.415
COC(=O)C[C@H]1[C@@H]2CC3=C(C)[C@@H](c4ccc(O[Si](C)(C)C(C)(C)C)cc4)C[C@H]3O[C@@H]2[C@@H]2OC(=O)[C@]3(C)C=CC(=O)[C@@]1(C)[C@@H]23 [S-121]	0.19
COC(=O)C[C@H]1[C@@H]2CC3=C(C)[C@H](c4ccc(CO[Si](C)(C)C(C)(C)C)cc4)C[C@@H]3O[C@@H]2[C@@H]2OC(=O)[C@]3(C)C=CC(=O)[C@@]1(C)[C@@H]23 [S-147]	0.192
COC(=O)C[C@H]1[C@]2(C)C3=C(C)[C@H](c4ccc(O[Si](C)(C)C(C)(C)C)cc4)C[C@H]3O[C@@H]2[C@@H]2OC(=O)[C@]3(C)C=CC(=O)[C@@]1(C)[C@@H]23 [S-117]	0.0788
COC(=O)C[C@H]1[C@@H]2CC3=C(C)[C@H](c4ccc(O[Si](C)(C)C(C)(C)C)cc4)C[C@@H]3O[C@@H]2[C@@H]2OC(=O)[C@]3(C)C=CC(=O)[C@@]1(C)[C@@H]23 [S-119]	0.188

Same assay, conditions: read-out: IC50 (μM) UWB1 cells, UWB1 cell viability

Compound	IC50 [µM]
COC(=O)C[C@H]1[C@@H]2CC3=C(C)[C@H](c4ccc(OS(=O)(=O)C(F)(F)F)cc4)C[C@@H]3O[C@@H]2[C@@H]2OC(=O)[C@]3(C)C=CC(=O)[C@@]1(C)[C@@H]23 [S-130]	0.225
CCC(C)NC(=O)c1ccc(-c2occc2[C@@H]2C[C@H]3O[C@@H]4[C@@H]5OC(=O)[C@]6(C)C=CC(=O)[C@](C)([C@@H](CC(=O)OC)[C@]4(C)C3=C2C)[C@@H]56)cc1 (stereo partly shown) [S-53]	0.17
COC(=O)C[C@H]1[C@]2(C)C3=C(C)[C@H](c4ccoc4-c4ccc(OC)cc4C)C[C@H]3O[C@@H]2[C@@H]2OC(=O)[C@]3(C)C=CC(=O)[C@@]1(C)[C@@H]23 [S-48]	0.212
C=C1[C@H](O)[C@@H]2OC(=O)[C@]3(C)C=CC(=O)[C@@](C)([C@@H]23)[C@H]1CC(=O)OC(C)(C)C [S-156]	3.65
COC(=O)C[C@H]1[C@@H]2CC3=C(C)[C@@H](c4ccc(-c5cc(C(C)(C)C)cc(C(C)(C)C)c5)cc4)C[C@H]3O[C@@H]2[C@@H]2OC(=O)[C@]3(C)C=CC(=O)[C@@]1(C)[C@@H]23 [S-136]	0.0934
COC(=O)C[C@H]1[C@]2(C)C3=C(C)[C@H](c4ccoc4-c4ccc5c(c4)OCO5)C[C@H]3O[C@@H]2[C@@H]2OC(=O)[C@]3(C)C=CC(=O)[C@@]1(C)[C@@H]23 [S-44]	0.383
COC(=O)C[C@H]1[C@]2(C)C3=C(C)[C@H](c4ccoc4)C[C@H]3O[C@@H]2[C@@H]2OC(=O)[C@]3(C)CCC(=O)[C@@]1(C)[C@@H]23 [S-60, 2,3-dihydronimbolide]	> 10
COC(=O)C[C@H]1[C@@H]2CC3=C(C)[C@H](C4CCCCC4)C[C@@H]3O[C@@H]2[C@@H]2OC(=O)[C@]3(C)C=CC(=O)[C@@]1(C)[C@@H]23 [S-105]	0.2
COC(=O)C[C@H]1[C@@H]2CC3=C(C)[C@@H](c4ccc(C(=O)O)cc4)C[C@@H]3O[C@@H]2[C@@H]2OC(=O)[C@]3(C)C=CC(=O)[C@@]1(C)[C@@H]23 [S-152]	2.88
COC(=O)C[C@@H]1[C@@]2(C)C(=O)C=C[C@@]3(C)C(=O)O[C@@H]([C@H]4O[C@H]5CC(c6ccoc6)=C(C)[C@]56C[C@@]416)[C@H]23 [S-65]	> 10
COC(=O)C[C@H]1[C@]2(C)C3=C(C)[C@H](C4=CC(=O)OC4OC(C)=O)C[C@H]3O[C@@H]2[C@@H]2OC(=O)[C@]3(C)C=CC(=O)[C@@]1(C)[C@@H]23 (stereo partly shown) [S-50]	1.04
COC(=O)C[C@H]1[C@]2(C)C3=C(C)[C@H](c4ccc(C(C)(C)C)cc4)C[C@H]3O[C@@H]2[C@@H]2OC(=O)[C@]3(C)C=CC(=O)[C@@]1(C)[C@@H]23 [S-141]	0.248
COC(=O)C[C@H]1[C@]2(C)C3=C(C)[C@H](c4ccoc4-c4ccc(C(=O)O)cc4)C[C@H]3O[C@@H]2[C@@H]2OC(=O)[C@]3(C)C=CC(=O)[C@@]1(C)[C@@H]23 [S-58]	1.79
CC1=C2[C@@H](C[C@H]1c1ccoc1)O[C@@H]1[C@@H]3OC(=O)[C@]4(C)C=CC(=O)[C@](C)([C@@H](CC(=O)OC(C)(C)C)[C@]21C)[C@@H]34 [S-154]	0.453
COC(=O)C[C@H]1[C@@H]2CC3=C(C)[C@H](c4ccc(-c5cc(C(C)(C)C)cc(C(C)(C)C)c5)cc4)C[C@H]3O[C@@H]2[C@@H]2OC(=O)[C@]3(C)C=CC(=O)[C@@]1(C)[C@@H]23 [S-133]	0.186
COC(=O)C[C@H]1[C@@H]2CC3=C(C)[C@H](c4ccc(C(C)(C)C)cc4)C[C@H]3O[C@@H]2[C@@H]2OC(=O)[C@]3(C)C=CC(=O)[C@@]1(C)[C@@H]23 [S-143]	0.238
C=C1[C@H](O)[C@H](O)[C@@H]2[C@](C)(C(=O)C=C[C@@]2(C)C(=O)OC)[C@H]1CC(=O)OC [S-16-b]	> 10
COC(=O)C[C@H]1[C@@H]2CC3=C(C)[C@@H](c4ccc(CO)cc4)C[C@@H]3O[C@@H]2[C@@H]2OC(=O)[C@]3(C)C=CC(=O)[C@@]1(C)[C@@H]23 [S-150]	0.351
CC1=C2C[C@@H]3[C@H](O[C@@H]2C[C@H]1c1ccoc1)[C@@H]1OC(=O)[C@]2(C)C=CC(=O)[C@@](C)([C@@H]12)[C@H]3CC(=O)OC(C)(C)C [S-155]	0.306
COC(=O)C[C@H]1[C@@H]2CC3=C(C)[C@@H](c4ccc(OS(=O)(=O)c5c(C)cc(C)cc5C)cc4)C[C@@H]3O[C@@H]2[C@@H]2OC(=O)[C@]3(C)C=CC(=O)[C@@]1(C)[C@@H]23 [S-139]	0.14
COC(=O)C[C@H]1[C@]2(C)C3=C(C)[C@@H](c4ccc(C(C)(C)C)cc4)C[C@H]3O[C@@H]2[C@@H]2OC(=O)[C@]3(C)C=CC(=O)[C@@]1(C)[C@@H]23 [S-145]	0.157
COC(=O)C[C@H]1[C@]2(C)C3=C(C)[C@H](c4ccoc4Br)C[C@H]3O[C@@H]2[C@@H]2OC(=O)[C@]3(C)C=CC(=O)[C@@]1(C)[C@@H]23 [S-41]	0.465
COC(=O)C[C@H]1[C@@H]2CC3=C(C)[C@H](c4ccc(C(C)(C)C)cc4)C[C@@H]3O[C@@H]2[C@@H]2OC(=O)[C@]3(C)C=CC(=O)[C@@]1(C)[C@@H]23 [S-142]	0.145
